Series [1] in a line: Rat pharmacokinetics, 1 mg/kg IV infusion and 5.0 mg/kg PO. Type of series: in vivo. As for the experimental part: Pharmacokinetics of Test Compounds following a 1 mg/kg IV infusion and 5.0 mg/kg PO dose in rats
For IV administration the test compound was formulated in 60:40 PEG 400:water with 1 equivalent HCl at 0.5 mg/mL. […] For PO (oral) administration, the test compound was formulated in 5/75/10/10 ethanol/PG/solutol/water at 2.5 mg/mL.
IV and PO dosing groups each consisted of 3 male SD rats. […] The animals were fasted overnight prior to dose administration and up to 4 hr after dosing.
For the IV infusion group, the test compound was administered by intravenous infusion over 30 minutes. The rate of infusion was adjusted according to the body weight of each animal to deliver a dose of 1 mg/kg at 2 mL/kg. For the oral dosing group, the test article was administered by oral gavage at 2 mL/kg for a dose of 5.0 mg/kg.
Serial venous blood samples (approximately 0.4 mL each) were taken at specified time points after dosing from each animal. The blood samples were collected into Vacutainer™ tubes (Becton-Disckinson Corp, N.J., USA) containing EDTA as the anti-coagulant and were immediately placed on wet ice pending centrifugation for plasma.
An LC/MS/MS method was used to measure the concentration of test compound in plasma.
Non-compartmental pharmacokinetic analysis was performed on the plasma concentration-time data.

The nature of series [2]: Determination of percent of compound bound to plasma (equilibrium dialysis). It is filed as in vitro ADME. The conditions noted are these: human. From the text:
Sample vials were weighed and recorded.
For orientation: In equilibrium dialysis only unbound substance equilibrates across the membrane.

For series [3], the target named is T1, CYP3A4 (Homo sapiens, UniProt P08684).
T1 construct: from tissue; host or cells: human liver microsomes
Put plainly: Cytochrome P450 inhibition, CYP3A4 (midazolam and testosterone). It is filed as in vitro ADME.

The mark [4] stands for this setting: pH 7.4, fraction unbound, comparative table, read-out: fu.

The structures appear in SMILES notation. Where two headings read alike, the source gives them in different places.

T1 sequence (P08684 whole entry): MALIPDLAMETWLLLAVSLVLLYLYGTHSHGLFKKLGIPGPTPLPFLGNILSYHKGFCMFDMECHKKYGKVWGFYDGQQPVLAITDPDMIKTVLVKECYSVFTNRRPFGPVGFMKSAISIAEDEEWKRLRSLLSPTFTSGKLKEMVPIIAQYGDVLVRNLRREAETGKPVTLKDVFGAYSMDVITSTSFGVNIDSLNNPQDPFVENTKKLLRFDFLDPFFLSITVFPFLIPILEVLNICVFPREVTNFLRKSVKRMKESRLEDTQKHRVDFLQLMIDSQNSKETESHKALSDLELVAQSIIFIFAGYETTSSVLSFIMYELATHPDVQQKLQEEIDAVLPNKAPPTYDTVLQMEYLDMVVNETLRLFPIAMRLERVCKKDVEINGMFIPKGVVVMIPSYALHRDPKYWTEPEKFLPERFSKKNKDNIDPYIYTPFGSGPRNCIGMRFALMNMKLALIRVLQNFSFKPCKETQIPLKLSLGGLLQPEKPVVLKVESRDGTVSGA

A word on the bioavailability: it is the share of a dose that reaches the circulation, judged against a reference dose that is usually intravenous. One may read the IC50 as the concentration that inhibits the measured activity by half. `Cc1ccc(C(=O)Nc2cccc(-c3nncn3C(C)C)n2)cc1-n1cnc(C2CC2)c1` [Compound B] gave a clearance in series [1] (male, SD, rat, plasma, intravenous, 1 mg/kg, rats) of 6.5 mL/min/kg. For the same compound, the Vd in series [1] (male, SD, rat, plasma, intravenous, 1 mg/kg, rats, read-out: Vss) is 0.54 L/kg. Further, the bioavailability in series [1] (male, SD, rat, plasma, rats, 5.0 mg/kg PO, read-out: oral bioavailability (% F)) stood at 50%. Also, the half-life in series [1] (male, SD, rat, plasma, rats, read-out: t½ (converted)) was 78 min. Besides, in series [1] (rat, in vivo), the “number of times the compound of formula (I) shows an improvement over the indicated compound: % F in rats” value is given as “(1.5X)”, the “number of times the compound of formula (I) shows an improvement over the indicated compound: CL in rats” value was “(3.6X)” and the “number of times the compound of formula (I) shows an improvement over the indicated compound: t½ in rats” value is listed as “(3.9X)”. For the same compound, the fraction unbound at 3 h, 2 μM in series [2] (setting [4]) was 0.032. In series [3], the “CYP3A4 IC50/PBAdj.EC50 value of compound of formula (I) higher than that of the named compound” value is listed as 92 times and the “number of times the compound of formula (I) shows an improvement over the indicated compound: Cyp3A4 IC50 (TST)” value is recorded as “(2.8X)”. Moreover, the 50% inhibitory concentration (IC50) in series [3] (testosterone substrate, comparative table, read-out: Cyp3A4 IC50 Testesterone (TST))) was 4 µM.
By t½ is commonly meant the time in which the quantity being followed falls by half. Low readings indicate fast loss, high ones slow loss. With `CC(C)n1cnnc1-c1cccc(NC(=O)c2cccc(-n3cnc(C4CC4)c3)c2)n1` [Compound A], in series [1] (rat, in vivo), the “number of times the compound of formula (I) shows an improvement over the indicated compound: % F in rats” value is given as “(6.8X)”, the “number of times the compound of formula (I) shows an improvement over the indicated compound: CL in rats” value was “(2.7X)”, the “number of times the compound of formula (I) shows an improvement over the indicated compound: Vss in rats” value was “(3.2X)” and the “number of times the compound of formula (I) shows an improvement over the indicated compound: t½ in rats” value is on record as “(8.6X)”. In addition, the t½ in series [1] (rats) came out at 35.4 min. Moreover, the fraction unbound at 3 h, 2 μM in series [2] (setting [4]) amounted to 0.048. Moreover, in series [3], the “CYP3A4 IC50/PBAdj.EC50 value of compound of formula (I) higher than that of the named compound” value is given as 43 times and the “number of times the compound of formula (I) shows an improvement over the indicated compound: Cyp3A4 IC50 (TST)” value was “(10X)”.
For the compound `Cc1cc(F)c(C(=O)Nc2cccc(-c3nncn3C(C)C)n2)cc1-n1cnc(C2CC2)c1` [compound of formula (I), 5-(4-cyclopropyl-1H-imidazol-1-yl)—N-(6-(4-isopropyl-4H-1,2,4-triazol-3-yl)pyridin-2-yl)-2-fluoro-4-methylbenzamide], the fraction unbound at 3 h, 2 μM in series [2] (setting [4]) is 0.12; in series [2] (pH 7.4, human plasma, 2 uM, 3 hours at 37 C, read-out: percent unbound), 0.119.

Source of the values: US20180099950A1, “APOPTOSIS SIGNAL-REGULATING KINASE INHIBITOR” (Gilead Sciences, Inc., priority 2012, published 2018).
